# Test results as given in PubChem BioAssay AID212 (DTP/NCI, 2004).
# Several values for one entry are separate records, joined by “and”; a condition that tells them apart may be missing. Identical values can stand only once. Results filed as inconclusive are left out.
# Test system: BDF1 mice, colon carcinoma 38 sc, T/C %
# Test: NCI In Vivo Anticancer Drug Screen. Data for tumor model Colon Carcinoma 38 (subcutaneous) in B6D2F1 (BDF1) mice
# Settings: endpoint: median tumor weight (est.), higher = larger tumour
# Summary of the method: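 Mice with transplanted tumors are treated with compound or vehicle. Survival or tumor size is then measured in both groups. The ratio of treated to control gives the reported figure.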
# [1] = dose: 50.0 mg/kg/injection, schedule: Q07DX002 (ip), vehicle: Klucel (hydroxypropylcellulose) (HPC)
# [2] = dose: 100.0 mg/kg/injection, schedule: Q07DX002 (ip), vehicle: Klucel (hydroxypropylcellulose) (HPC)
# [3] = dose: 400.0 mg/kg/injection, schedule: Q07DX002 (ip), vehicle: Klucel (hydroxypropylcellulose) (HPC)
# [4] = dose: 25.0 mg/kg/injection, schedule: Q07DX002 (ip), vehicle: Klucel (hydroxypropylcellulose) (HPC)
structure (smiles),measurement,setting,value
Cc1ccc(S(=O)(=O)NC(=O)C2C(=O)CC3(CCCCC3)CC2=O)cc1,T/C,[1],104 % of control
same,T/C,[2],112 % of control
same,T/C,"dose: 200.0 mg/kg/injection, schedule: Q07DX002 (ip), vehicle: Klucel (hydroxypropylcellulose) (HPC)",95 % of control
same,T/C,[3],102 % of control
O=CC(NC(=O)N(CCCl)N=O)C(O)C(O)C(O)CO (stereo not drawn),T/C,"dose: 0.47 mg/kg/injection, schedule: Q07DX003 (ip), vehicle: saline",102 % of control
same,T/C,"dose: 0.94 mg/kg/injection, schedule: Q07DX003 (ip), vehicle: saline",98 % of control
same,T/C,"dose: 1.5 mg/kg/injection, schedule: Q07DX002 (ip), vehicle: saline",105 % of control
same,T/C,"dose: 3.75 mg/kg/injection, schedule: Q07DX003 (ip), vehicle: saline",68 % of control
same,T/C,"dose: 4.0 mg/kg/injection, schedule: Q07DX002 (ip), vehicle: saline",92 % of control
same,T/C,"dose: 6.0 mg/kg/injection, schedule: Q07DX003 (ip), vehicle: saline",68 % of control
same,T/C,"dose: 7.5 mg/kg/injection, schedule: Q07DX003 (ip), vehicle: saline",68 % of control
same,T/C,"dose: 8.0 mg/kg/injection, schedule: Q07DX002 (ip), vehicle: saline",57 % of control
same,T/C,"dose: 12.0 mg/kg/injection, schedule: Q07DX003 (ip), vehicle: saline",82 % of control
same,T/C,"dose: 15.0 mg/kg/injection, schedule: Q07DX003 (ip), vehicle: saline",43 % of control
same,T/C,"dose: 16.0 mg/kg/injection, schedule: Q07DX002 (ip), vehicle: saline",43 % of control
same,T/C,"dose: 24.0 mg/kg/injection, schedule: Q07DX003 (ip), vehicle: saline",57 % of control
O=c1[nH]c(=O)n(C2CC(O)C(CO)O2)cc1Br (stereo not drawn),T/C,[1],112 % of control
same,T/C,[3],86 % of control and 87 % of control
same,T/C,"dose: 800.0 mg/kg/injection, schedule: Q07DX002 (ip), vehicle: Klucel (hydroxypropylcellulose) (HPC)",88 % of control
O=C(NC1CCCCC1)OCc1c(COC(=O)NC2CCCCC2)c(-c2ccc(Cl)c(Cl)c2)n2c1CCC2,T/C,"dose: 12.5 mg/kg/injection, schedule: Q07DX002 (ip), vehicle: saline with Tween-80",111 % of control
same,T/C,"dose: 25.0 mg/kg/injection, schedule: Q07DX002 (ip), vehicle: saline with Tween-80",85 % of control
same,T/C,"dose: 50.0 mg/kg/injection, schedule: Q07DX002 (ip), vehicle: saline with Tween-80",76 % of control
same,T/C,"dose: 100.0 mg/kg/injection, schedule: Q07DX002 (ip), vehicle: saline with Tween-80",95 % of control
same,T/C,"dose: 200.0 mg/kg/injection, schedule: Q07DX002 (ip), vehicle: saline with Tween-80",86 % of control
same,T/C,"dose: 400.0 mg/kg/injection, schedule: Q07DX002 (ip), vehicle: saline with Tween-80",80 % of control
COc1ccc2[nH]c3ccc4cc[n+](CCN5CCC(C6CCN(CC[n+]7ccc8ccc9[nH]c%10ccc(OC)cc%10c9c8c7)CC6)CC5)cc4c3c2c1,T/C,[4],79 % of control
same,T/C,[1],70 % of control
same,T/C,[2],56 % of control
O=NN(CCCl)C(=O)NC1CCCCC1,T/C,"dose: 6.25 mg/kg/injection, schedule: Q07DX002 (ip), vehicle: Klucel (hydroxypropylcellulose) (HPC)",91 % of control
same,T/C,"dose: 10.0 mg/kg/injection, schedule: Q07DX003 (ip), vehicle: Klucel (hydroxypropylcellulose) (HPC)",71 % of control
same,T/C,"dose: 10.0 mg/kg/injection, schedule: Q07DX003 (ip), vehicle: carboxymethylcellulose (CMC)",53 % of control
same,T/C,"dose: 12.5 mg/kg/injection, schedule: Q07DX002 (ip), vehicle: Klucel (hydroxypropylcellulose) (HPC)",64 % of control
same,T/C,"dose: 20.0 mg/kg/injection, schedule: Q07DX003 (ip), vehicle: Klucel (hydroxypropylcellulose) (HPC)",72 % of control
same,T/C,"dose: 20.0 mg/kg/injection, schedule: Q07DX003 (ip), vehicle: carboxymethylcellulose (CMC)",47 % of control
same,T/C,[4],36 % of control
same,T/C,"dose: 40.0 mg/kg/injection, schedule: Q07DX003 (ip), vehicle: Klucel (hydroxypropylcellulose) (HPC)",44 % of control
same,T/C,"dose: 40.0 mg/kg/injection, schedule: Q07DX003 (ip), vehicle: carboxymethylcellulose (CMC)",24 % of control
same,T/C,"dose: 80.0 mg/kg/injection, schedule: Q07DX003 (ip), vehicle: Klucel (hydroxypropylcellulose) (HPC)",33 % of control
